From the kinase profiling compilation of Christmann-Franck et al. (2016)

What was measured:
Experiment in all cases: KINOMEscan competition binding
Settings in all cases: compound 10.0 µM
[1] = target: AAK1 (human) (UniProt Q2M2I8)
[2] = target: ABL1 (human) (UniProt P00519)
[3] = test system: ABL1 (human), P00519 [T315I]
[4] = target: ACVR1 (human) (UniProt Q04771)
[5] = target: ACVR2B (human) (UniProt Q13705)
[6] = target: ADCK3 (human) (UniProt Q8NI60)
[7] = target: AKT1 (human) (UniProt P31749)
[8] = target: AURKB (human) (UniProt Q96GD4)
[9] = test system: BRAF (human), P15056 [V600E]
[10] = target: CAMK1D (human) (UniProt Q8IU85)
[11] = target: CAMK2B (human) (UniProt Q13554)
[12] = target: CDK16 (human) (UniProt Q00536)
[13] = target: CDK18 (human) (UniProt Q07002)
[14] = target: CDK9 (human) (UniProt P50750)
[15] = target: CDKL3 (human) (UniProt Q8IVW4)
[16] = target: CHUK (human) (UniProt O15111)
[17] = target: CIT (human) (UniProt O14578)
[18] = target: ERBB3 (human) (UniProt P21860)
[19] = target: IKBKE (human) (UniProt Q14164)
[20] = target: MAP2K6 (human) (UniProt P52564)
[21] = target: MAP4K2 (human) (UniProt Q12851)
[22] = target: MARK3 (human) (UniProt P27448)
[23] = target: MYLK2 (human) (UniProt Q9H1R3)
[24] = target: MYLK4 (human) (UniProt Q86YV6)
[25] = target: NTRK1 (human) (UniProt P04629)
[26] = target: NTRK2 (human) (UniProt Q16620)
[27] = target: NUAK2 (human) (UniProt Q9H093)
[28] = target: PDGFRB (human) (UniProt P09619)
[29] = target: PDPK1 (human) (UniProt O15530)
[30] = target: PIM2 (human) (UniProt Q9P1W9)
[31] = target: PKN2 (human) (UniProt Q16513)
[32] = target: PRKAA2 (human) (UniProt P54646)
[33] = target: PRKCD (human) (UniProt Q05655)
[34] = target: PRKD1 (human) (UniProt Q15139)
[35] = target: PTK2B (human) (UniProt Q14289)
[36] = test system: RET (human), P07949 [V804L]
[37] = target: RPS6KA1 KD2 (human) (UniProt Q15418)
[38] = target: RPS6KA2 KD2 (human) (UniProt Q15349)
[39] = target: SGK110 (human) (UniProt P0C264)
[40] = target: TNK1 (human) (UniProt Q13470)
[41] = target: YES1 (human) (UniProt P07947)
[42] = target: DYRK2 (human) (UniProt Q92630)

Sequence of RPS6KA1 KD2 (human) (Q15418 whole entry, looked up): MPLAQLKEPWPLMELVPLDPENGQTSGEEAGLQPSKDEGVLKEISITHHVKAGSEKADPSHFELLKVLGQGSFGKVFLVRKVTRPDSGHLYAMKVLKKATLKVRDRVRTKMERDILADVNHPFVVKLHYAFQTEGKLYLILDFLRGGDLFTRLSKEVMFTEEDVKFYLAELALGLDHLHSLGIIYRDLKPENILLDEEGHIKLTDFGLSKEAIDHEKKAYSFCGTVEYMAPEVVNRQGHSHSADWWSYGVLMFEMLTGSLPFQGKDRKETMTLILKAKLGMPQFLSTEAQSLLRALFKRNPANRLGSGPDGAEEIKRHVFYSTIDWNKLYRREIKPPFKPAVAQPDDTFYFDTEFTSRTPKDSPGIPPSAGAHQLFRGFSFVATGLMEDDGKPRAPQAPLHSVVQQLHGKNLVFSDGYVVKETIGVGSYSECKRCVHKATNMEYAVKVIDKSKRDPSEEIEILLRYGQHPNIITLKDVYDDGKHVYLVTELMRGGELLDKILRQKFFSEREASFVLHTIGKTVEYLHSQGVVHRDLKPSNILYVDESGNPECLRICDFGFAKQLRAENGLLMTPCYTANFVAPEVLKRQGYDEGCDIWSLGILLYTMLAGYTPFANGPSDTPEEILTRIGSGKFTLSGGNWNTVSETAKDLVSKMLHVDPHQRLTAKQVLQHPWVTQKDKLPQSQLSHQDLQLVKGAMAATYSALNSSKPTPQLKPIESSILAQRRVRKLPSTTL
Sequence of YES1 (human) (P07947 whole entry, looked up): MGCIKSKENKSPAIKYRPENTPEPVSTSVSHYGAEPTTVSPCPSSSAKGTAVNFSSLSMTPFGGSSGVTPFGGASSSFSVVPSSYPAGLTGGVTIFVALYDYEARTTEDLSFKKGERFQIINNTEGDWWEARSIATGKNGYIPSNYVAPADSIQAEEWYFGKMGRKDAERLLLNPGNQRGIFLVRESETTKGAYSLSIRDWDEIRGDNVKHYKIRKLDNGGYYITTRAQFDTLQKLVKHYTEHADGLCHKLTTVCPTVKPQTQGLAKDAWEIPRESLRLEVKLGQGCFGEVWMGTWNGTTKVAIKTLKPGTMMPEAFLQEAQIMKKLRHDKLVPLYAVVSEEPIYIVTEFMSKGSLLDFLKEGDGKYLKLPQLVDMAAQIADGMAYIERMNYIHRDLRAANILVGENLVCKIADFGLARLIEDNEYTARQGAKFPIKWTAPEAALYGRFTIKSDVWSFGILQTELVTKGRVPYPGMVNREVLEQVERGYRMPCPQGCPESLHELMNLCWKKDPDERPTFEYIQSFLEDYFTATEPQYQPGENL
Sequence of PRKCD (human) (Q05655 whole entry, looked up): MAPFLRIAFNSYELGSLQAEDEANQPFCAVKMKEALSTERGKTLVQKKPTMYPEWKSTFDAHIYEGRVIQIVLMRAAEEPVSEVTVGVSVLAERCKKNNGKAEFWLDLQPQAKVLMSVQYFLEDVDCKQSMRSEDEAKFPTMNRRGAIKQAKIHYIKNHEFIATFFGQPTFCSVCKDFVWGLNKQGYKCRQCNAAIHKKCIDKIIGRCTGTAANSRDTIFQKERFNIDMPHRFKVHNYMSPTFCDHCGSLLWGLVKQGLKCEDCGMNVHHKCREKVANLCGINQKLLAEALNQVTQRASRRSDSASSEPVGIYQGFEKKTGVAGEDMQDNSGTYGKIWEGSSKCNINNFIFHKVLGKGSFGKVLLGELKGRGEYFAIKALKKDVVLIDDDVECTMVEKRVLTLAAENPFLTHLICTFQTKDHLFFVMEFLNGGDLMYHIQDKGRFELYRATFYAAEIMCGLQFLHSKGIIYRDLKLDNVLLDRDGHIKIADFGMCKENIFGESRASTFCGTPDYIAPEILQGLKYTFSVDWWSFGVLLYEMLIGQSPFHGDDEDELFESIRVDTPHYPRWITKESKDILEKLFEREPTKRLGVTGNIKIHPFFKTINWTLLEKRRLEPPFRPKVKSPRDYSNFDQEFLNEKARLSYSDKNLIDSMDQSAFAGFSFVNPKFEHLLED
Sequence of PIM2 (human) (Q9P1W9 whole entry, looked up): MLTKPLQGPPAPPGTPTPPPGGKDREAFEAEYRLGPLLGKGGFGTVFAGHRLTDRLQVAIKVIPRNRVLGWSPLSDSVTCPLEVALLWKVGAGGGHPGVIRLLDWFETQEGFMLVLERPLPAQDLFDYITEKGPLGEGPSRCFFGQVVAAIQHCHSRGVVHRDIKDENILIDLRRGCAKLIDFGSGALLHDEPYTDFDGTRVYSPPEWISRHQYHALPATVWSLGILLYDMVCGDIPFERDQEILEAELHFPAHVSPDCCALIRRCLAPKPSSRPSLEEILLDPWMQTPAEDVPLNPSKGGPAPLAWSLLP
Sequence of ACVR1 (human) (Q04771 whole entry, looked up): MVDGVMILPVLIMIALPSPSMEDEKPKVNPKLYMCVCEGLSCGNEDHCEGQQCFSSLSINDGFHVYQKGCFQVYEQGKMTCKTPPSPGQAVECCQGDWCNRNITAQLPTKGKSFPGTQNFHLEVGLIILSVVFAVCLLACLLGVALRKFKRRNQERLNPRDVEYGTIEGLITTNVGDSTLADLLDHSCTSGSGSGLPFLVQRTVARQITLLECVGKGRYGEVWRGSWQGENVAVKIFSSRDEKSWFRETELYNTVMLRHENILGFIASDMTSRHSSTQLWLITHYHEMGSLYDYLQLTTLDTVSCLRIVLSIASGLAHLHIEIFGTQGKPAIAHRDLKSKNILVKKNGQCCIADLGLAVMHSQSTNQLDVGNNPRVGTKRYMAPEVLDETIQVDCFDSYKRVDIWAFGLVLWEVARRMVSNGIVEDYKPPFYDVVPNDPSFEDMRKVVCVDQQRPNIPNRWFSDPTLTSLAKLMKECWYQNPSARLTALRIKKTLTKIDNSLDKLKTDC
Sequence of PDPK1 (human) (O15530 whole entry, looked up): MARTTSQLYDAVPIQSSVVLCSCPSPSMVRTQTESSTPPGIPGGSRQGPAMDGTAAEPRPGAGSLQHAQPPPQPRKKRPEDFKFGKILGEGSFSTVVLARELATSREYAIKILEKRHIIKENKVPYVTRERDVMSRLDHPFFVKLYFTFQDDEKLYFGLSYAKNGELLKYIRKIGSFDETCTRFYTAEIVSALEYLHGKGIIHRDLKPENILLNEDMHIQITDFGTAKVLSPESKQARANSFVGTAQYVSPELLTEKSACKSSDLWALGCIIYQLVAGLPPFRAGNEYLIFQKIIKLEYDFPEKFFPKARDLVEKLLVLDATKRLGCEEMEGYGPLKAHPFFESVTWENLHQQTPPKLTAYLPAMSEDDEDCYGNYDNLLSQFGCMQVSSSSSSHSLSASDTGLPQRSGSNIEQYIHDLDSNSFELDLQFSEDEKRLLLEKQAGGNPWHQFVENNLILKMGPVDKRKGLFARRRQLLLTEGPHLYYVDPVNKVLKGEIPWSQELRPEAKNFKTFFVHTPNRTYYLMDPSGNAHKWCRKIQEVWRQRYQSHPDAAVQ
Sequence of RPS6KA2 KD2 (human) (Q15349 whole entry, looked up): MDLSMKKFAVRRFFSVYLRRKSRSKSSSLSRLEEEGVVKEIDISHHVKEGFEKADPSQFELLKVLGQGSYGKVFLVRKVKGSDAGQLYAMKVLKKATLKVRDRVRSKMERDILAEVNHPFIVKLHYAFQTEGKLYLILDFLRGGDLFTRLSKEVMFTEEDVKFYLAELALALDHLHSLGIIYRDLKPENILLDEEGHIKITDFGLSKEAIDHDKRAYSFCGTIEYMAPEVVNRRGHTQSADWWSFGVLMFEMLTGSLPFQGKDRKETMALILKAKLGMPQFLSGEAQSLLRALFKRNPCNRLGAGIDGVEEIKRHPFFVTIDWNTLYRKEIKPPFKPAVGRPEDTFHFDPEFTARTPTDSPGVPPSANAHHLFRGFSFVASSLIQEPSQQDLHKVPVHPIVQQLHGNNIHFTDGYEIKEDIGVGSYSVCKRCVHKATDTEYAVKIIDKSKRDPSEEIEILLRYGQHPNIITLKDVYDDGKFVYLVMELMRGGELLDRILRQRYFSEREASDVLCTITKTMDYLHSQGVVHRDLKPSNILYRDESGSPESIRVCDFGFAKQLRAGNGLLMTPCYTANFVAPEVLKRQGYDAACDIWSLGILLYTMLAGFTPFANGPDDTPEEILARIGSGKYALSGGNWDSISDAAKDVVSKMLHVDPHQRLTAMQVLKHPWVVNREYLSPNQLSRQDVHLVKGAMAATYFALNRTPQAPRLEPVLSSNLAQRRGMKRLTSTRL
Sequence of CDK16 (human) (Q00536 whole entry, looked up): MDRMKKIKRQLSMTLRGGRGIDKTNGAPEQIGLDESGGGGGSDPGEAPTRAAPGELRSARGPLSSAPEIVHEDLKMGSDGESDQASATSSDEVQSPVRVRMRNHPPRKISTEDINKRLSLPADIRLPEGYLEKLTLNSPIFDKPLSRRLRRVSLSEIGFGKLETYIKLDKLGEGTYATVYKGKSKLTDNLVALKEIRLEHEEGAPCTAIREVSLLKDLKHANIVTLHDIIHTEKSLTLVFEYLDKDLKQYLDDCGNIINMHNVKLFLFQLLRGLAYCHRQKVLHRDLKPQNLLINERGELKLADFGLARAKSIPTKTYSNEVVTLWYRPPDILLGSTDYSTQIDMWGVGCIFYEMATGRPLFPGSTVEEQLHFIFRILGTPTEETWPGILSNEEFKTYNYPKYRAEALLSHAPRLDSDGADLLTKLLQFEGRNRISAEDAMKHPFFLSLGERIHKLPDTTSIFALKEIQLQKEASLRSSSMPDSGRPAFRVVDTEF
Sequence of CDK9 (human) (P50750 whole entry, looked up): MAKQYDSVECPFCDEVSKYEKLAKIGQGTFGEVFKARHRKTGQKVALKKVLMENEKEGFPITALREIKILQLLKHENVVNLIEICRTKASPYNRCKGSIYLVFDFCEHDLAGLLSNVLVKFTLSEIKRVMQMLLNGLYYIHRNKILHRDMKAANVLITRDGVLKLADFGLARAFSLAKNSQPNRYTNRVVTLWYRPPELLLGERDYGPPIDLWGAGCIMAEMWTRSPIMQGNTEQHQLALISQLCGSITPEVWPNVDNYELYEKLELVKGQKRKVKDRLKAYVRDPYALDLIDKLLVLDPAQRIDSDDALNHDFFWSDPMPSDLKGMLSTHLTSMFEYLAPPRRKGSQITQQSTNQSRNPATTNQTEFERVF

SMILES: O=C1Nc2cc(Br)ccc2/C1=C1/Nc2ccccc2/C1=N\O
- kinase still bound, per cent of control [1]: 0.75%
- kinase still bound, per cent of control [2]: 2.3%
- kinase still bound, per cent of control [3]: 0.65%
- kinase still bound, per cent of control [4]: 32%
- kinase still bound, per cent of control [5]: 20%
- kinase still bound, per cent of control [6]: 80%
- kinase still bound, per cent of control [7]: 100%
- kinase still bound, per cent of control [8]: 2.8%
- kinase still bound, per cent of control [9]: 84%
- kinase still bound, per cent of control [10]: 45%
- kinase still bound, per cent of control [11]: 3.6%
- kinase still bound, per cent of control [12]: 0%
- kinase still bound, per cent of control [13]: 12%
- kinase still bound, per cent of control [14]: 26%
- kinase still bound, per cent of control [15]: 82%
- kinase still bound, per cent of control [16]: 83%
- kinase still bound, per cent of control [17]: 29%
- kinase still bound, per cent of control [18]: 61%
- kinase still bound, per cent of control [19]: 29%
- kinase still bound, per cent of control [20]: 47%
- kinase still bound, per cent of control [21]: 8.5%
- kinase still bound, per cent of control [22]: 28%
- kinase still bound, per cent of control [23]: 3%
- kinase still bound, per cent of control [24]: 7.3%
- kinase still bound, per cent of control [25]: 19%
- kinase still bound, per cent of control [26]: 7.2%
- kinase still bound, per cent of control [27]: 39%
- kinase still bound, per cent of control [28]: 0%
- kinase still bound, per cent of control [29]: 20%
- kinase still bound, per cent of control [30]: 52%
- kinase still bound, per cent of control [31]: 29%
- kinase still bound, per cent of control [32]: 4.2%
- kinase still bound, per cent of control [33]: 100%
- kinase still bound, per cent of control [34]: 100%
- kinase still bound, per cent of control [35]: 9.3%
- kinase still bound, per cent of control [36]: 0%
- kinase still bound, per cent of control [37]: 47%
- kinase still bound, per cent of control [38]: 79%
- kinase still bound, per cent of control [39]: 100%
- kinase still bound, per cent of control [40]: 16%
- kinase still bound, per cent of control [41]: 6.4%

SMILES: Cc1cnc(-c2cnc(NCCNc3ccc(C#N)cn3)nc2-c2ccc(Cl)cc2Cl)[nH]1
- kinase still bound, per cent of control [1]: 100%
- kinase still bound, per cent of control [2]: 96%
- kinase still bound, per cent of control [3]: 100%
- kinase still bound, per cent of control [4]: 100%
- kinase still bound, per cent of control [5]: 100%
- kinase still bound, per cent of control [6]: 100%
- kinase still bound, per cent of control [7]: 100%
- kinase still bound, per cent of control [8]: 94%
- kinase still bound, per cent of control [9]: 49%
- kinase still bound, per cent of control [10]: 100%
- kinase still bound, per cent of control [12]: 39%
- kinase still bound, per cent of control [13]: 100%
- kinase still bound, per cent of control [14]: 58%
- kinase still bound, per cent of control [15]: 52%
- kinase still bound, per cent of control [16]: 100%
- kinase still bound, per cent of control [17]: 100%
- kinase still bound, per cent of control [42]: 68%
- kinase still bound, per cent of control [18]: 73%
- kinase still bound, per cent of control [19]: 98%
- kinase still bound, per cent of control [20]: 73%
- kinase still bound, per cent of control [21]: 82%
- kinase still bound, per cent of control [22]: 100%
- kinase still bound, per cent of control [23]: 97%
- kinase still bound, per cent of control [24]: 98%
- kinase still bound, per cent of control [25]: 100%
- kinase still bound, per cent of control [26]: 100%
- kinase still bound, per cent of control [27]: 94%
- kinase still bound, per cent of control [28]: 74%
- kinase still bound, per cent of control [29]: 99%
- kinase still bound, per cent of control [30]: 89%
- kinase still bound, per cent of control [32]: 56%
- kinase still bound, per cent of control [33]: 100%
- kinase still bound, per cent of control [34]: 100%
- kinase still bound, per cent of control [35]: 100%
- kinase still bound, per cent of control [36]: 100%
- kinase still bound, per cent of control [37]: 91%
- kinase still bound, per cent of control [38]: 100%
- kinase still bound, per cent of control [39]: 100%
- kinase still bound, per cent of control [40]: 80%
- kinase still bound, per cent of control [41]: 100%

SMILES: COc1ccc(CNC(=O)Nc2ncc([N+](=O)[O-])s2)cc1
- kinase still bound, per cent of control [1]: 100%
- kinase still bound, per cent of control [2]: 100%
- kinase still bound, per cent of control [3]: 100%
- kinase still bound, per cent of control [4]: 98%
- kinase still bound, per cent of control [5]: 100%
- kinase still bound, per cent of control [6]: 100%
- kinase still bound, per cent of control [7]: 86%
- kinase still bound, per cent of control [8]: 97%
- kinase still bound, per cent of control [9]: 49%
- kinase still bound, per cent of control [10]: 100%
- kinase still bound, per cent of control [11]: 100%
- kinase still bound, per cent of control [12]: 15%
- kinase still bound, per cent of control [13]: 89%
- kinase still bound, per cent of control [14]: 89%
- kinase still bound, per cent of control [15]: 76%
- kinase still bound, per cent of control [16]: 100%
- kinase still bound, per cent of control [17]: 89%
- kinase still bound, per cent of control [42]: 68%
- kinase still bound, per cent of control [18]: 73%
- kinase still bound, per cent of control [19]: 88%
- kinase still bound, per cent of control [20]: 98%
- kinase still bound, per cent of control [21]: 100%
- kinase still bound, per cent of control [22]: 100%
- kinase still bound, per cent of control [23]: 93%
- kinase still bound, per cent of control [24]: 91%
- kinase still bound, per cent of control [26]: 81%
- kinase still bound, per cent of control [27]: 93%
- kinase still bound, per cent of control [28]: 88%
- kinase still bound, per cent of control [29]: 78%
- kinase still bound, per cent of control [30]: 76%
- kinase still bound, per cent of control [31]: 78%
- kinase still bound, per cent of control [32]: 96%
- kinase still bound, per cent of control [33]: 100%
- kinase still bound, per cent of control [34]: 69%
- kinase still bound, per cent of control [35]: 100%
- kinase still bound, per cent of control [36]: 100%
- kinase still bound, per cent of control [37]: 100%
- kinase still bound, per cent of control [38]: 83%
- kinase still bound, per cent of control [39]: 83%
- kinase still bound, per cent of control [40]: 100%
- kinase still bound, per cent of control [41]: 83%
